How the values were obtained:
[1] = molecular target: Rho-A (Homo sapiens (Human), UniProt P61586); assay: Rho inhibition assay (labeled GTP); assay type: binding; details: read-out: Rho-A % Inh.
[2] = molecular target: Rac-1 (Homo sapiens (Human), UniProt P63000); assay: Rac inhibition assay (labeled GTP); assay type: binding; details: read-out: Rac-1 % Inh.
[3] = molecular target: KRas G12D/Q61H double mutant (Homo sapiens (Human), UniProt P01116, G12D/Q61H); assay: Ras GTP binding domain inhibition assay (labeled GTP); details: at 20 μM; read-out: KRas G12D Q61H % Inh.
Summary of the method: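 Labelled-GTP binding: plate-captured His-KRas protein was pre-exposed to compound for 3 h at room temperature (single 20 μM point or dilution series, 1% DMSO, Tris pH 7.5/MgCl2/DTT buffer). Cy3- or Cy5-GTP was then added for 45 min. Washed wells were read for retained fluorescence to give inhibition or IC50.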

Chain of Rho-A (P61586 whole entry): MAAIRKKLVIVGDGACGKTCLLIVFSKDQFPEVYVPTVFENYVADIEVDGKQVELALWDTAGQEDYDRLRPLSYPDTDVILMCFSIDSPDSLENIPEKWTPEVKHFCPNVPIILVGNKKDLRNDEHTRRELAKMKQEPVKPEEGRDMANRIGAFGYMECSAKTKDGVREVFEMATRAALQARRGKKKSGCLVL
Chain of KRas G12D/Q61H double mutant (P01116-2 other isoform, or with tags, fused parts or gaps G12D/Q61H): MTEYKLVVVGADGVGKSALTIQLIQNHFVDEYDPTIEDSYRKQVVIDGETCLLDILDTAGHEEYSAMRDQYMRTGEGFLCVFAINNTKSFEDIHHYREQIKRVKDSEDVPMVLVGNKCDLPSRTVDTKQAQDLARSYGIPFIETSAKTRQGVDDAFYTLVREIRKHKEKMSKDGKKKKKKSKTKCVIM

Row | inhibition at 20 µM [1] [%] | inhibition at 20 µM [2] [%] | inhibition at 20 µM [3] [%] | SMILES
1 | 0 | 1 to 25 | 1 to 25 | COc1nc(-c2ccccn2)nc(Oc2cccc(C(F)(F)F)c2)c1OC [drawing 3870]
2 | 0 | 1 to 25 | 1 to 25 | Oc1nc(-c2ccccn2)nc2c(-c3cncc(C(F)F)c3)csc12 [drawing 3826]
3 | 1 to 25 | 0 | 0 | COc1cnc(C2CCCN2)nc1O (stereo not drawn) [drawing 3788]
4 | 76 to 100 | 76 to 100 | 25 to 50 | O=C(NCCc1cccnc1)c1cc2nc(-c3ccccn3)nc(O)c2s1 [drawing 3715]
5 | 1 to 25 | 1 to 25 | 1 to 25 | COc1nc(-c2ccccn2)nc2c(C3CCCCC3)csc12 [drawing 3798]
6 | 25 to 50 | 25 to 50 | 0 | COc1cc(OC)cc(N2CCN(C(=O)c3csc4c(O)nc(-c5ccccn5)nc34)CC2)c1 [drawing 3646]
7 | 76 to 100 | 76 to 100 | 51 to 75 | O=C(c1csc2c(O)nc(-c3ccccn3)nc12)N1CCNC(Cc2ccc(F)cc2)C1 (stereo not drawn) [drawing 3703]
8 | 76 to 100 | 76 to 100 | 1 to 25 | COc1ccc(C2CN(C(=O)c3csc4c(O)nc(-c5ccccn5)nc34)CCN2)cc1 (stereo not drawn) [drawing 3663]
9 | 1 to 25 | 1 to 25 | 1 to 25 | Oc1nc(-c2ccccn2)nc2c(-c3cncc(F)c3)csc12 [drawing 3782]
10 | 76 to 100 | 76 to 100 | 25 to 50 | O=C(c1csc2c(O)nc(-c3ccccn3)nc12)N1CCN(c2cccc(F)c2)CC1 [drawing 3642]
11 | 76 to 100 | 76 to 100 | 25 to 50 | O=C(c1csc2c(O)nc(-c3ccccn3)nc12)N1CCOC(Cc2ccccc2)C1 (stereo not drawn) [drawing 3660]
12 | 25 to 50 | 25 to 50 | 25 to 50 | Cc1sc2c(N)nc(-c3ccccn3)nc2c1-c1ccccc1 [drawing 3709]
13 | 76 to 100 | 76 to 100 | 25 to 50 | O=C(c1csc2c(O)nc(-c3ccccn3)nc12)N1CCNC(c2ccccc2Cl)C1 (stereo not drawn) [drawing 3695]
14 | 51 to 75 | 76 to 100 | 51 to 75 | O=C(c1csc2c(O)nc(-c3ccccn3)nc12)N1CCN(c2ccc(F)cc2F)CC1 [drawing 3649]
15 | 25 to 50 | 25 to 50 | 1 to 25 | COc1nccc(CCNC(=O)c2csc3nc(-c4ccccn4)nc(N4CCOCC4)c23)n1 [drawing 3769]
16 | 1 to 25 | 25 to 50 | 0 | Oc1nc(-c2ccccn2)nc2c(Br)c(-c3ccccc3)sc12 [drawing 3871]
17 | 1 to 25 | 25 to 50 | 25 to 50 | O=C(c1csc2c(O)nc(-c3ccccn3)nc12)N1CCOC(c2cccc(F)c2)C1 (stereo not drawn) [drawing 3630]
18 | 51 to 75 | 51 to 75 | 25 to 50 | Cc1c(Br)sc2c(O)nc(-c3ccccn3)nc12 [drawing 3793]
19 | 51 to 75 | 51 to 75 | 51 to 75 | O=C(c1csc2c(O)nc(-c3ccccn3)nc12)N1CCNC(Cc2cccc(F)c2)C1 (stereo not drawn) [drawing 3704]
20 | 25 to 50 | 51 to 75 | 1 to 25 | COc1cc(CCNC(=O)c2csc3nc(-c4ccccn4)nc(N4CCOCC4)c23)ccn1 [drawing 3636]
21 | 51 to 75 | 51 to 75 | 25 to 50 | COC(=O)c1csc2nc(-c3ccccn3)nc(N)c12 [drawing 3767]
22 | 51 to 75 | 1 to 25 | 1 to 25 | O=C(c1csc2c(O)nc(-c3ccccn3)nc12)N1CCOC(c2cccc(Cl)c2)C1 (stereo not drawn) [drawing 3659]
23 | 1 to 25 | 1 to 25 | 1 to 25 | COCCCCNC(=O)c1csc2nc(-c3ccccn3)nc(N3CCS(=O)(=O)CC3)c12 [drawing 3698]

Row | inhibition at 20 µM [1] [%] | inhibition at 20 µM [2] [%] | inhibition at 20 µM [3] [%] | SMILES
24 | 76 to 100 | 1 to 25 | 25 to 50 | COc1ccccc1C1CN(C(=O)c2csc3c(O)nc(-c4ccccn4)nc23)CCN1 (stereo not drawn) [drawing 3661]
25 | 0 | 1 to 25 | 0 | Cc1ccc(-c2cc3nc(-c4ccccn4)nc(O)c3s2)cc1 [drawing 3873]
26 | 1 to 25 | 1 to 25 | 1 to 25 | Oc1nc(-c2ccccn2)nc2c(-c3cncnc3)csc12 [drawing 3823]
27 | 1 to 25 | 25 to 50 | 25 to 50 | Cc1cc(OC(F)F)ccc1-c1csc2c(O)nc(-c3ccccn3)nc12 [drawing 3750]
28 | 76 to 100 | 76 to 100 | 1 to 25 | Cn1cc(C2CN(C(=O)c3csc4c(O)nc(-c5ccccn5)nc34)CCN2)cn1 (stereo not drawn) [drawing 3666]
29 | 76 to 100 | 76 to 100 | 25 to 50 | Cc1sc2c(O)nc(-c3ccccn3)nc2c1C(=O)N1CCN(c2ccccc2)CC1 [drawing 3827]
30 | 25 to 50 | 25 to 50 | 0 | COc1ccc(CCN(C)C(=O)c2csc3nc(-c4ccccn4)nc(N4CCOCC4)c23)cn1 [drawing 3635]
31 | 51 to 75 | 25 to 50 | 25 to 50 | Cc1sc2nc(-c3ccccn3)nc(N)c2c1Br [drawing 3803]
32 | 51 to 75 | 51 to 75 | 51 to 75 | N#Cc1ccc2c(c1)CCCC2C(=O)Nc1ccnc(-c2ccccn2)n1 (stereo not drawn) [drawing 3727]
33 | 25 to 50 | 1 to 25 | 0 | COc1cc(N2CCN(C(=O)c3csc4c(O)nc(-c5ccccn5)nc34)CC2)cc(OC)c1OC [drawing 3647]
34 | 51 to 75 | 76 to 100 | 0 | COc1cc(CCN(C)C(=O)c2csc3nc(-c4ccccn4)nc(N4CCOCC4)c23)ccn1 [drawing 3670]
35 | 51 to 75 | 76 to 100 | 1 to 25 | CC(C(=O)Nc1ccnc(-c2ccccn2)n1)c1ccc(C#N)cc1 (stereo not drawn) [drawing 3683]
36 | 51 to 75 | 25 to 50 | 1 to 25 | O=C(c1csc2c(O)nc(-c3ccccn3)nc12)N1CCOC(c2ccccc2)C1 (stereo not drawn) [drawing 3655]
37 | 76 to 100 | 76 to 100 | 25 to 50 | O=C(c1csc2c(O)nc(-c3ccccn3)nc12)N1CCNC(Cc2ccccc2)C1 (stereo not drawn) [drawing 3667]
38 | 25 to 50 | 51 to 75 | 25 to 50 | Nc1nc(-c2ccccn2)nc(C(=O)NCCc2ccncc2)c1Oc1ccccc1 [drawing 3869]
39 | 51 to 75 | 51 to 75 | 25 to 50 | COC(=O)c1sc2c(O)nc(-c3ccccn3)nc2c1C [drawing 3795]
40 | 76 to 100 | 76 to 100 | 25 to 50 | O=C(c1csc2c(O)nc(-c3ccccn3)nc12)N1CCN(Cc2ccc(O)c(Cl)c2)CC1 [drawing 3654]
41 | 51 to 75 | 51 to 75 | 1 to 25 | O=C(NCCc1cncnc1)c1csc2nc(-c3ccccn3)nc(N3CCOCC3)c12 [drawing 3673]
42 | 51 to 75 | 76 to 100 | 1 to 25 | Cc1cnc(-c2ccccn2)nc1NC(=O)C(C)c1ccc(C#N)cc1 (stereo not drawn) [drawing 3686]
43 | 76 to 100 | 76 to 100 | 1 to 25 | COc1ccc(N2CCN(C(=O)c3csc4c(O)nc(-c5ccccn5)nc34)CC2)cc1O [drawing 3691]
44 | 25 to 50 | 25 to 50 | 25 to 50 | COc1ccnc(-c2nc(O)c3c(Br)csc3n2)c1 [drawing 3632]
45 | 25 to 50 | 1 to 25 | 25 to 50 | Cc1sc2c(O)nc(-c3ccccn3)nc2c1C(=O)O [drawing 3801]
46 | 51 to 75 | 76 to 100 | 0 | O=C(NCCc1ccncc1)c1csc2nc(-c3ccccn3)nc(N3CCOCC3)c12 [drawing 3668]

Row | SMILES | inhibition at 20 µM [1] [%] | inhibition at 20 µM [2] [%] | inhibition at 20 µM [3] [%]
47 | O=C(c1csc2c(O)nc(-c3ccccn3)nc12)N1CCOC(c2nccs2)C1 (stereo not drawn) [drawing 3631] | 76 to 100 | 76 to 100 | 25 to 50
48 | CCn1nc(C)cc1-c1csc2c(O)nc(-c3ccccn3)nc12 [drawing 3775] | 76 to 100 | 51 to 75 | 51 to 75
49 | Oc1nc(-c2ccccn2)nc2c(C3CCCCC3)csc12 [drawing 3830] | 51 to 75 | 25 to 50 | 25 to 50
50 | CC(C)c1nn(C)cc1-c1csc2c(O)nc(-c3ccccn3)nc12 [drawing 3820] | 51 to 75 | 51 to 75 | 51 to 75
